Assay results reported in patent US10154997B2, “Treatment of parasitic diseases using KDAC inhibitor compounds” (Washington University, priority 2015, dated 2018).
Read-outs that look alike come from different tables or passages of the source.

Experiments:
[1] = test system: B. malayi; assay: Endoparasites dose response assay (Endoparasites_DR), B. malayi; set-up: species or system Brugia malayi; conditions: nematode B. malayi
[2] = test system: L929 mouse fibroblast; assay: Cytotoxicity viability assay (CYT vt); assay type: cell-based
[3] = test system: human cancer cell lines; assay: Activity on human cancer cell lines; assay type: cell-based
[4] = test system: parasites (nematodes and protists); assay: Compound screening in parasites, summary statements
[5] = test system: H. contortus; assay: Endoparasites dose response assay (Endoparasites_DR), H. contortus; conditions: Haemonchus contortus, 96 h

SMILES: Cn1cc(/C=C/C(=O)c2cccc(NC(=O)OC(C)(C)C)c2)cc1C(=O)NO [MC2776]
- EC50 [1]: 4.39 µM
- IC50 ([2]; host-cell line, read-out: activity in the host-cell line): > 10 µM
- IC50 [3]: > 10 µM
- efficacy in the protists ([4]; any of the protists): did not show any efficacy

SMILES: CCCCCCCC(=O)SCC/C=C/[C@@H]1CC(=O)NCc2nc(cs2)C2=N[C@@](C)(CS2)C(=O)N[C@@H](C(C)C)C(=O)O1 [SD-L-148, Largazole, reference compound]
- IC50 ([2]; Mus musculus, L929): 0.101 µM
- IC50 [5]: 7.1 µM

SMILES: CC(C)(C)OC(=O)Nc1cccc(C(=O)/C=C/c2ccc(/C=C/C(=O)NO)cc2)c1 [MC2780]
- pan-parasite potential ([4]; across parasites screened): demonstrated pan-parasite potential
